Test results from the CheMixHub viscosity set.
± gives the uncertainty stated by the source.

Assay: xn = mol fraction of the nth substance listed

CCCCCCCCCCCCCC(=O)OC + CCCCCO
viscosity [mPa·s], 100 kPa
Settings	x2 = 0.1012	x2 = 0.2002	x2 = 0.2997	x2 = 0.4007	x2 = 0.4997	x2 = 0.6007	x2 = 0.7006	x2 = 0.7997	x2 = 0.9
293.15 K	4.279 ± 0.17	4.092 ± 0.17	3.927 ± 0.16	3.791 ± 0.15	3.695 ± 0.15	3.592 ± 0.15	3.512 ± 0.14	3.539 ± 0.14	3.679 ± 0.15
298.15 K	3.789 ± 0.15	3.61 ± 0.15	3.474 ± 0.14	3.371 ± 0.14	3.249 ± 0.13	3.162 ± 0.13	3.1 ± 0.13	3.1 ± 0.13	3.191 ± 0.13
303.15 K	3.336 ± 0.14	3.189 ± 0.13	3.071 ± 0.13	2.96 ± 0.12	2.868 ± 0.12	2.794 ± 0.11	2.729 ± 0.11	2.72 ± 0.11	2.795 ± 0.11
308.15 K	2.932 ± 0.12	2.809 ± 0.12	2.701 ± 0.11	2.603 ± 0.11	2.524 ± 0.1	2.454 ± 0.1	2.397 ± 0.098	2.384 ± 0.098	2.429 ± 0.099
313.15 K	2.641 ± 0.11	2.533 ± 0.1	2.43 ± 0.099	2.342 ± 0.096	2.268 ± 0.093	2.197 ± 0.09	2.15 ± 0.088	2.126 ± 0.087	2.159 ± 0.088
318.15 K	2.42 ± 0.099	2.318 ± 0.095	2.234 ± 0.091	2.142 ± 0.088	2.071 ± 0.085	2.006 ± 0.082	1.96 ± 0.08	1.938 ± 0.079	1.949 ± 0.08
323.15 K	2.18 ± 0.089	2.089 ± 0.086	2.009 ± 0.082	1.931 ± 0.079	1.865 ± 0.076	1.803 ± 0.074	1.764 ± 0.072	1.73 ± 0.071	1.738 ± 0.071

Cc1ccccc1O + CCC(=O)O
viscosity [mPa·s], 101 kPa
Settings	x2 = 0.1315	x2 = 0.2542	x2 = 0.3688	x2 = 0.4761	x2 = 0.5768	x2 = 0.6716	x2 = 0.7608	x2 = 0.845	x2 = 0.9246
298.15 K	6.126 ± 0.5	4.978 ± 0.43	4.056 ± 0.36	3.325 ± 0.3	2.73 ± 0.25	2.216 ± 0.2	1.816 ± 0.17	1.505 ± 0.14	1.253 ± 0.12
308.15 K	4.701 ± 0.41	3.949 ± 0.35	3.325 ± 0.3	2.79 ± 0.25	2.329 ± 0.21	1.93 ± 0.18	1.606 ± 0.15	1.33 ± 0.13	1.1 ± 0.11
318.15 K	3.245 ± 0.29	2.875 ± 0.26	2.527 ± 0.23	2.198 ± 0.2	1.885 ± 0.17	1.6 ± 0.15	1.333 ± 0.13	1.126 ± 0.11	0.9354 ± 0.093

C1CCC2=[NH+]CCCN2CC1.c1nc[n-]n1 + CN(C)C=O
303.15 K, 100 kPa
Settings	viscosity [mPa·s]
x1 = 0.1001	1.42 ± 0.03
x1 = 0.2	3.07 ± 0.07
x1 = 0.2999	6.28 ± 0.14
x1 = 0.4003	11.77 ± 0.27
x1 = 0.4989	25.38 ± 0.59
x1 = 0.6002	46.11 ± 1.1
x1 = 0.7008	98.43 ± 3.2
x1 = 0.7993	195 ± 9.9
x1 = 0.9002	470.1 ± 38

CC(C)(C)c1ccccc1 + CCCCCCCCCCCC
viscosity [mPa·s], 102 kPa
Settings	x1 = 0.1017	x1 = 0.2009	x1 = 0.2995	x1 = 0.4002	x1 = 0.5001	x1 = 0.5979	x1 = 0.699	x1 = 0.8	x1 = 0.9006
293.15 K	1.43 ± 0.02	1.37 ± 0.02	1.32 ± 0.02	1.27 ± 0.02	1.22 ± 0.02	1.18 ± 0.02	1.16 ± 0.02	1.14 ± 0.02	1.13 ± 0.02
303.15 K	1.2 ± 0.02	1.16 ± 0.02	1.12 ± 0.02	1.08 ± 0.02	1.05 ± 0.02	1.02 ± 0.02	0.998 ± 0.021	0.982 ± 0.021	0.975 ± 0.021
313.15 K	1.03 ± 0.02	0.998 ± 0.021	0.971 ± 0.021	0.942 ± 0.021	0.916 ± 0.021	0.895 ± 0.021	0.874 ± 0.021	0.859 ± 0.021	0.854 ± 0.021
323.15 K	0.9 ± 0.021	0.872 ± 0.021	0.846 ± 0.021	0.825 ± 0.021	0.804 ± 0.021	0.787 ± 0.021	0.77 ± 0.021	0.758 ± 0.021	0.752 ± 0.021

CCCCCOC(C)=O + CC(C)=O
298.15 K, 101 kPa
Settings	viscosity [mPa·s]
x2 = 0.17	0.688 ± 0.009
x2 = 0.336	0.6224 ± 0.0081

Cc1ccccc1O + CC12CCC(CC1)C(C)(C)O2
viscosity [mPa·s], 101 kPa
Settings	x2 = 0.0644	x2 = 0.1341	x2 = 0.2098	x2 = 0.2923	x2 = 0.3825	x2 = 0.4817	x2 = 0.5911	x2 = 0.7125	x2 = 0.8479
303.15 K	6.716 ± 0.18	7.057 ± 0.19	7.387 ± 0.2	7.431 ± 0.2	7.201 ± 0.19	6.63 ± 0.18	5.917 ± 0.16	4.949 ± 0.14	3.732 ± 0.11
308.15 K	5.48 ± 0.16	5.76 ± 0.16	5.997 ± 0.17	6.081 ± 0.17	5.929 ± 0.17	5.628 ± 0.16	5.058 ± 0.15	4.201 ± 0.12	3.201 ± 0.096
313.15 K	4.569 ± 0.13	4.81 ± 0.14	4.944 ± 0.14	5.041 ± 0.15	5.032 ± 0.15	4.696 ± 0.14	4.12 ± 0.12	3.359 ± 0.1	2.48 ± 0.077

CCCCCOC(C)=O + O
303.15 K, 101.3 kPa
Settings	viscosity [mPa·s]
x2 = 0.0121	0.796 ± 0.025
x2 = 0.0385	0.801 ± 0.025
x2 = 0.0645	0.805 ± 0.026
x2 = 0.0655	0.805 ± 0.026
x2 = 0.0854	0.809 ± 0.026

CC1CCC(C)O1 (centres undefined) + Brc1ccccc1
viscosity [mPa·s], 101 kPa
Settings	x1 = 0.0965	x1 = 0.2006	x1 = 0.3011	x1 = 0.4016	x1 = 0.4921
298.15 K	1.003 ± 0.0068	0.941 ± 0.0064	0.8808 ± 0.006	0.8196 ± 0.0056	0.7658 ± 0.0053
313.15 K	0.833 ± 0.0059	0.7831 ± 0.0056	0.7338 ± 0.0052	0.6848 ± 0.0049	0.6411 ± 0.0047

CC(C)CO + COC(C)(C)C
298.15 K, 101 kPa
Settings	viscosity [mPa·s]
x2 = 0.1007	2.39 ± 0.029
x2 = 0.2009	1.72 ± 0.021
x2 = 0.2996	1.27 ± 0.016
x2 = 0.3951	0.987 ± 0.012
x2 = 0.502	0.776 ± 0.01
x2 = 0.6038	0.637 ± 0.008
x2 = 0.7002	0.536 ± 0.007
x2 = 0.8022	0.449 ± 0.006
x2 = 0.9008	0.385 ± 0.005

CC1CCCO1 (centres undefined) + Brc1ccccc1
viscosity [mPa·s], 101 kPa
Settings	x1 = 0.0991	x1 = 0.1998	x1 = 0.301	x1 = 0.4046	x1 = 0.5029
298.15 K	1.007 ± 0.0082	0.9516 ± 0.0078	0.8942 ± 0.0074	0.8346 ± 0.0069	0.7773 ± 0.0065
313.15 K	0.835 ± 0.0069	0.7895 ± 0.0066	0.7425 ± 0.0063	0.6943 ± 0.0059	0.6477 ± 0.0056

CCCCCOC(C)=O + CCOc1ccccc1
Settings	viscosity [mPa·s]
298.15 K, 101 kPa, x2 = 0.5	0.855 ± 0.0085
